Values after ≈ are worked out from the molar mass of the structure shown. Where two headings read alike, the source gives them in different places. Each block holds one compound with its values, some of them ahead of it.
Experiments:
[1] = Body temperature measurements; type: in vivo, rat; conditions: 30 µmol/kg orally; for body temperature change: monitored for more than 3 hours
Experimental: Rats were placed in individual cages at room temperature (22-25°C). Rectal temperatures were recorded from awake animals by repeated insertion of a lubricated rectal thermocouple probe (model-8402-00, Cole-Palmer Instrument Company) prior to and following orally administration of V405 at 30 µmil/kg.

[2] = molecular target: T1, CYP1A2 (Homo sapiens, UniProt P05177); experiment: Fluorometric cytochrome P450 inhibition assay; type: in vitro ADME; conditions: tested from 0.1 µM to 10 µM, 37°C, read-out: Cytochrome P450 subtypes µM inhibition (estimated IC50) CYP1A2
T1 sequence (P05177 1-516): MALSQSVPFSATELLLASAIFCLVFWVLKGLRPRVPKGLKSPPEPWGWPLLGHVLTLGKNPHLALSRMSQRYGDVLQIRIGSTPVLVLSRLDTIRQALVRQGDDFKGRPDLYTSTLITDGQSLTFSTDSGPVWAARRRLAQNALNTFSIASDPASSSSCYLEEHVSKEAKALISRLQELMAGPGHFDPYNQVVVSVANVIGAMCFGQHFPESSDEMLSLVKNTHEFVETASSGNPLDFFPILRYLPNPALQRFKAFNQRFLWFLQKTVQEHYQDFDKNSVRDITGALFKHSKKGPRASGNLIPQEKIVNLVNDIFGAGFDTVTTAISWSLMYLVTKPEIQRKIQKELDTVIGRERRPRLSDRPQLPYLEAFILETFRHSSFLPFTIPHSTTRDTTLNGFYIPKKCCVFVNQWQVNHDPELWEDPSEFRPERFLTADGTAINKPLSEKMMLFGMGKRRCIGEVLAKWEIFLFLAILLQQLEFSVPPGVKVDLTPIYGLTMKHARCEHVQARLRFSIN
Experimental: (§1) A microtiter plate-based, direct, fluorometric assay was performed to analyze V405 inhibition potential of activities catalyzed by six of the major human liver cytochromes P450 (CYP) enzymes: CYP1A2, CYP2C9, CYP2C19, CYP2D6, CYP2E1 and CYP3A4. The six cytochrome P450 subtypes inhibition was tested from 0.1 µM to10 µM.
(§2) Four dilution points were evaluated (10 µM, 2.15 µM, 0.46 µM and 0.1 µM). A lid was placed on the plate and plate was placed at 37°C in a plate incubator for at least 10 minutes (to pre-warm the buffer and the plate). The reaction started when 0.1 mL enzyme/substrate solution mix was added to test wells. The plate was mixed and the reaction was continued incubating the lid-covered plate at 37°C for the desired time.
(§3) A stop solution was then added to all wells. and an enzyme/substrate mix was dispensed to the inverted blank wells (negative controls).
(§4) >The IC50 was calculated with a typical logistic curve fitting : % Inib = (Min-Max)/(1 + ((Conc)/(IC50)())^p) + Max [formula]

[3] = molecular target: CYP3A4 (Homo sapiens, UniProt P08684); experiment: Fluorometric cytochrome P450 inhibition assay; type: in vitro ADME; conditions: tested from 0.1 µM to 10 µM, 37°C, read-out: Cytochrome P450 subtypes µM inhibition (estimated IC50) CYP3A4
Experimental: as §1, §2, §3, §4

[4] = molecular target: CYP2C19 (Homo sapiens, UniProt P33261); experiment: Fluorometric cytochrome P450 inhibition assay; type: in vitro ADME; conditions: tested from 0.1 µM to 10 µM, 37°C, read-out: Cytochrome P450 subtypes µM inhibition (estimated IC50) CYP2C19
Experimental: as §1, §2, §3, §4

[5] = molecular target: CYP2C9 (Homo sapiens, UniProt P11712); experiment: Fluorometric cytochrome P450 inhibition assay; type: in vitro ADME; conditions: tested from 0.1 µM to 10 µM, 37°C, read-out: Cytochrome P450 subtypes µM inhibition (estimated IC50) CYP2C9
Experimental: as §1, §2, §3, §4

[6] = molecular target: CYP2D6 (Homo sapiens, UniProt P10635); experiment: Fluorometric cytochrome P450 inhibition assay; type: in vitro ADME; conditions: tested from 0.1 µM to 10 µM, 37°C, read-out: Cytochrome P450 subtypes µM inhibition (estimated IC50) CYP2D6
Experimental: as §1, §2, §3, §4

[7] = molecular target: CYP2E1 (Homo sapiens, UniProt P05181); experiment: Fluorometric cytochrome P450 inhibition assay; type: in vitro ADME; conditions: tested from 0.1 µM to 10 µM, 37°C, read-out: Cytochrome P450 subtypes µM inhibition (estimated IC50) CYP2E1
Experimental: as §1, §2, §3, §4

[8] = Thermodynamic solubility in PBS; type: physicochemical; conditions: phosphate buffer pH 7.4, room temperature, stirring 36h, HPLC
Experimental: The standard solution was prepared by dissolving 1.4 mg of V405 in 10 mL of acetonitrile. A saturated solution of V405 was prepared by stirring 10 mL of phosphate buffer pH 7.4 in the presence of 10 mg of compound. The stirring was conducted at room temperature for 36h. The supernatant was filtered through a Millipore […] filter and 10 µL were used as sample for the HPLC determination. (Eluents: A = Water with 0.1% TFA, B = Acetonitrile + 0.1% TFA, Gradient: 0-100% B in 25 min, Column: SYMMETRY 300 C18 5 µM; 4,6 X 150 MM, […]). The solubility was determined by the following relationship: C'= percent area' C/percent area where C= concentration of standard solution (mg/ml), percent area': area of the peak of standard solution, percent area: area of the peak of saturated solution, C'= concentration of the saturated solution. The solubility was then expressed as […].

[9] = molecular target: T2, TRPV1 expressed in rat spinal cord (Rattus norvegicus, UniProt O35433); experiment: Radioligand binding assay ([3H]-RTX, spinal cord membranes)
T2 construct: the spinal cord was removed and disrupted using a Polytron tissue homogenizer; from tissue; host or cells: rat spinal cord membranes
Experimental: Male Sprague-Dawley rats with body weight between 250 to 350 g at the time for testing were used. For binding assays rats were sacrificed by decapitation under anesthesia and the spinal cord was removed and disrupted using a Polytron tissue homogenizer in ice cold buffer containing 5 mM KCl, 5.8 mM NaCl, 0.75 mM CaCl2, 2 mM MgCl2, 320 mM sucrose, 10 mM Hepes, pH 8.6.^5 The homogenized tissue was centrifuged at 1000 x g for 10 min at 4°C and the supernatant was centrifuged again at 35000 x g for 30 min at 4°C (Beckman Avanti J25). The pellet was resuspended in the same buffer as described above and used in binding experiments. In saturation experiments, 150 µg protein/sample from membrane suspensions were incubated with [^3H]-Resiniferatoxin ([^3H]-RTX) (0.003-3 nM) in the assay buffer containing 0.25 mg/ml fatty acid-free bovine serum albumin at 37°C for 60 min. In competition experiments, the membranes were incubated at 37°C for 60 min with [^3H]RTX (0.4 nM) and with increasing concentrations (from 0.1 nM to 3 µM) of examined compounds.
Non specific binding was evaluated in the presence of 1 µM RTX. After incubation the reaction mixture was cooled at 0°C and incubated with bovine α1-acid glycoprotein (200 µg per tube) for 15 min to reduce non-specific RTX binding. Membrane-bound RTX was separated from free RTX by centrifuging the samples at 18500 x g for 15 min. The tip of the microcentrifuge tube containing the pellet was cut off and the radioactivity was determined by scintillation counting (Packard 2500 TR). Protein concentration was determined according to a Bio-Rad method with bovine serum albumin as a standard reference (Bradford, 1976). Saturation and competition studies were analyzed with the Ligand program.

[10] = molecular target: T3, TRPV1 expressing neurons (Rattus norvegicus, UniProt O35433); experiment: Ca2+ fluorescence measurements in cultured dorsal root ganglia neurones; type: cell-based
T3 construct: Adult rats were terminally anaesthetized and decapitated; Dorsal root ganglia were removed; endogenous in cells; host or cells: primary cultured adult rat dorsal root ganglia neurons
Experimental: Adult rats were terminally anaesthetized and decapitated. […] The ganglia, placed in cold DMEM supplemented with 10% fetal bovine serum, 2 mM L-glutamine, 100 U/ml penicillin and 100 µg/ml streptomycin, were dissociated in single cells by several passages through a series of syringe needles (23G down to 25G). The medium and the ganglia were filtered to remove debris, topped up with 8 ml of DMEM medium and centrifuged (200 x g for 5 min). […] The cells were then washed twice with the Ca^2+ buffer solution and transferred to a chamber on the stage of a Nikon eclipse TE300 microscope. […] A calibration curve was set up using buffer containing Fura-2-AM-ester and determinant concentrations of free Ca^2+. This curve was then used to convert the data obtained from the F340/F380 ratio to [Ca^2+]¡ (nM).

[11] = test system: six of the major human liver cytochromes P450 (CYP) enzymes; experiment: Cytochrome P450 inhibition, whole panel (qualitative statement); type: in vitro ADME; conditions: panel of six CYPs, each concentration tested (0.1-10 µM)
Experimental: as §1, §2, §3, §4

[12] = Capsaicin-induced secondary allodynia; type: in vivo, rat; conditions: 30 µmol/kg orally 2 hours prior to capsaicin (5 nmols/50 µl/paw); 30 min after capsaicin challenge
Experimental: Capsaicin (5 nmols/50 µl/paw) was injected in the plantar surface of the glabrous skin of the right paw of rats anesthetized with diethyl ether (Chaplan et al., 1994). Compound V405 was orally administrated (30 µmol/kg) 2 hours prior to capsaicin injection. Tactile allodynia was evaluated 30 min after capsaicin challenge.

[13] = 0.1 µM capsaicin; mean and 95% fiducial limits; read-out: IC50 of inhibition of capsaicin-evoked [Ca2+]i mobilization

T2 sequence (O35433 whole entry): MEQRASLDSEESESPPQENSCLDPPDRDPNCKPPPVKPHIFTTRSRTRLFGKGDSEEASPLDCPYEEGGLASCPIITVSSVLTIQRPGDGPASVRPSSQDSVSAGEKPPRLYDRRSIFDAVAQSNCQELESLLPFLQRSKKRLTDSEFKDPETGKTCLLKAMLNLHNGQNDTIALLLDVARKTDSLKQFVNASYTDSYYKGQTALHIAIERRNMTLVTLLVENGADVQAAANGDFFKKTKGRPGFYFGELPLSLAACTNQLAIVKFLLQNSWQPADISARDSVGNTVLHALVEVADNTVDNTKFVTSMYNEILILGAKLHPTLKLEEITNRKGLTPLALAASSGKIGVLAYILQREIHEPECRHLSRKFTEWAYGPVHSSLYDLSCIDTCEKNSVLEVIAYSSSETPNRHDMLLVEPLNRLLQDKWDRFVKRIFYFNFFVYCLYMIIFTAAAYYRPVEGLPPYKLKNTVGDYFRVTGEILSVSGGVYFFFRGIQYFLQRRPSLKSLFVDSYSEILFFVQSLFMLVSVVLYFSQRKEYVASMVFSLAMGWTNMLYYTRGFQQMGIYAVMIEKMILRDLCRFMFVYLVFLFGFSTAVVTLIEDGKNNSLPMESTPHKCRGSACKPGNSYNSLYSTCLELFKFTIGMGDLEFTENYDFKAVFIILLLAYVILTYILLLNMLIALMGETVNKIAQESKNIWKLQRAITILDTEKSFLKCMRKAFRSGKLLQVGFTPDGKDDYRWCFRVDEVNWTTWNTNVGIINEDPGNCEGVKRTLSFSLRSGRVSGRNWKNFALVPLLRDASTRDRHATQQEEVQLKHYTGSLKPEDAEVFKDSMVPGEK
T3 sequence (O35433 whole entry): as above
Sequence of CYP3A4 (P08684 whole entry): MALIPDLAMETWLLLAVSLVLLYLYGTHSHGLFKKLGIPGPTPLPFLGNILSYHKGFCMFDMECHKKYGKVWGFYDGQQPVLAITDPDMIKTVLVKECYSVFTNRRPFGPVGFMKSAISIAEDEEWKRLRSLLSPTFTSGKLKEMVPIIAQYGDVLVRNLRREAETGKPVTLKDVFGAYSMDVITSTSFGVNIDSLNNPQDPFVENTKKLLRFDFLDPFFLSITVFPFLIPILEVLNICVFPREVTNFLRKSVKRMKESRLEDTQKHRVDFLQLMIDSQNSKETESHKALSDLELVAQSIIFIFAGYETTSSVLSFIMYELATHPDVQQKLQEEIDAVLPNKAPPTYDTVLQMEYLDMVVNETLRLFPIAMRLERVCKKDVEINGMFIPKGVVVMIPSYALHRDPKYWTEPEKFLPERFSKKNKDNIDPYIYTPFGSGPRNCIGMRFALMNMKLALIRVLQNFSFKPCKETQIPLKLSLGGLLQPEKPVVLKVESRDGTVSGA
Sequence of CYP2D6 (P10635 whole entry): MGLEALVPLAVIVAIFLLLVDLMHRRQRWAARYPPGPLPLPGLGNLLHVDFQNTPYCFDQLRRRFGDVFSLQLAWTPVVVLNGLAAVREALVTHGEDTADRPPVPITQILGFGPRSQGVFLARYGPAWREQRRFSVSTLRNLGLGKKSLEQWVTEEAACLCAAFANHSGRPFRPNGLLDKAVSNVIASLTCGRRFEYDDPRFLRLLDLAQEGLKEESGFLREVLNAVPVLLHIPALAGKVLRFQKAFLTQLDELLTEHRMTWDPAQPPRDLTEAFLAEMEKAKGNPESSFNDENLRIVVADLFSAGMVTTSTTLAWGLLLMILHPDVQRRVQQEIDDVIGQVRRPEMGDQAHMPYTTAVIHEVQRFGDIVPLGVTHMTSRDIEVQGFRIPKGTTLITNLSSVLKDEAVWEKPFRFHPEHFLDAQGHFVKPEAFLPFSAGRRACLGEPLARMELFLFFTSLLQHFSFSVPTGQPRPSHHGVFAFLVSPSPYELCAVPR
Sequence of CYP2E1 (P05181 whole entry): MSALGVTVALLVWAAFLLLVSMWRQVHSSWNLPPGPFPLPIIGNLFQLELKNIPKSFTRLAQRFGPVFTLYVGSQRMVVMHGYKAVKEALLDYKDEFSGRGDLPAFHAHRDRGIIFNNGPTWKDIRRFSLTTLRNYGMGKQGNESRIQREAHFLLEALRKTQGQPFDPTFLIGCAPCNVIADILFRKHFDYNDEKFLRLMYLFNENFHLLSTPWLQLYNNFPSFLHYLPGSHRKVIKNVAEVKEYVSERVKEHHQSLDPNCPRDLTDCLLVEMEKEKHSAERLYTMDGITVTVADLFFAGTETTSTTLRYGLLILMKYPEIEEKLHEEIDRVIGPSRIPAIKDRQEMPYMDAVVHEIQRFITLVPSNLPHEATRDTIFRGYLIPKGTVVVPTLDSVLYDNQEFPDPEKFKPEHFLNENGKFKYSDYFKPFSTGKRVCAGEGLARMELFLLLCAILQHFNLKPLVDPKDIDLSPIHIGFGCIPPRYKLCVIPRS
Sequence of CYP2C19 (P33261 whole entry): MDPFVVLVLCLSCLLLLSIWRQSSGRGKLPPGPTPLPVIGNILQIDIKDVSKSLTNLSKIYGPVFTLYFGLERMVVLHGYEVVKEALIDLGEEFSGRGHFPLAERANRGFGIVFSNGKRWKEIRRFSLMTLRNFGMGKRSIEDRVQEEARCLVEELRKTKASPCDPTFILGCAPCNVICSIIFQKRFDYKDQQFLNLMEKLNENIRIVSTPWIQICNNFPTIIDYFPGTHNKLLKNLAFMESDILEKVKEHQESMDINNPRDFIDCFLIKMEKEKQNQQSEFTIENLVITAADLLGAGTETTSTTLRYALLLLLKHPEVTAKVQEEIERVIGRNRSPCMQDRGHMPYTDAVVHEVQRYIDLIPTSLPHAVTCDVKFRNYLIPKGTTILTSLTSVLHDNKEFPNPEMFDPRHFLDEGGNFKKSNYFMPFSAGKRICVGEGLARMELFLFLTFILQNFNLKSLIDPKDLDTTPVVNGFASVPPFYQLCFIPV
Sequence of CYP2C9 (P11712 whole entry): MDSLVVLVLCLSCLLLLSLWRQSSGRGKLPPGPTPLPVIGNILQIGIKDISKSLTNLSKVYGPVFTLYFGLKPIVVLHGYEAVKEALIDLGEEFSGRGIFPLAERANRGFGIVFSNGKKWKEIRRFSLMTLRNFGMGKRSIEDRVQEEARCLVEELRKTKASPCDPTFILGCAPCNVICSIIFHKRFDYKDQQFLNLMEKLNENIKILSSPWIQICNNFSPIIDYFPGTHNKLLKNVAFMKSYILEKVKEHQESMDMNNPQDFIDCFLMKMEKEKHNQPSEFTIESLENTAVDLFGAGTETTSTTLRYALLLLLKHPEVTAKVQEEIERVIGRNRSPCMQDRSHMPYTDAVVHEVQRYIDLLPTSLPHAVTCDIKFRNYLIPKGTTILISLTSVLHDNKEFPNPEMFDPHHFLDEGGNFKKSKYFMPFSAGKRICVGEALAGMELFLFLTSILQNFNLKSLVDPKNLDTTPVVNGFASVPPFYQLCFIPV

Structure (SMILES): O=C(Nc1ccc(Cl)cc1)c1ccc(-c2cccc3cnccc23)[n+]([O-])c1 [Example V405]
body temperature change [1]: No significant temperature change | body temperature change ([1]; listed as compound 1): does not cause thermal increase | IC50 [2]: > 10 µM | IC50 [3]: > 10 µM | IC50 [4]: > 10 µM | IC50 [5]: > 10 µM | IC50 [6]: > 10 µM | IC50 [7]: > 10 µM | solubility thermodynamic at 36 h ([8]; 2160 min): 106.4 µM (≈ 40 µg/mL) | solubility thermodynamic at 36 h ([8]; phosphate buffer, pH 7.4, aqueous buffer): 106 µM (≈ 39.8 µg/mL) | Ki [9]: 203 nM | IC50 ([10]; read-out: IC50 of inhibition of capsaicin-evoked [Ca2+]i mobilization; 0.1 µM capsaicin; mean and 95% fiducial limits): 15 nM | interaction with the evaluated cytochromes [11]: does not interact | preventive effect against the pro-allodinic effect of capsaicin [12]: 55%

Structure (SMILES): C=C(C)[C@]12C[C@@H](C)[C@@]34O[C@](Cc5ccccc5)(O[C@@H]1[C@@H]3C=C(COC(=O)Cc1ccc(O)c(OC)c1)C[C@]1(O)C(=O)C(C)=C[C@@H]41)O2 [[^3H]-RTX, [^3H]-Resiniferatoxin]
Kd ([9]; saturation curve, [3H]-RTX 0.003-3 nM, 37°C, 60 min, mean (95% limits)): 0.21 nM

Structure (SMILES): Oc1cc2c(cc1O)CN(C(=S)NCCc1ccc(Cl)cc1)CCC2 [capsazepine]
IC50 [10, 13]: 948 nM

Continued, values first:

Ki ([9]; competition with [3H]RTX (0.4 nM), 37°C, 60 min, read-out: Ki): 36 nM | IC50 [10, 13]: 8.7 nM
Structure (SMILES): COc1cccc(NC(=O)/C=C/c2ccc(Cl)cc2)c1 [SB-366791, (E)-3-(4-chlorophenyl)-N-(3-methoxyphenyl)acrylamide]

temperature increase (mean value) with respect to control animals ([1]; during the whole experiment (more than 3 hours)): +0.5 °C | Thermodynamic solubility [8]: not soluble
Structure (SMILES): O=C(Nc1ccc(Cl)cc1)c1ccc(-c2cccc3cnccc23)nc1 [non-oxidized homologous, N-(4-chlorophenyl)-6-(isoquinolin-5-yl)pyridine-3-carboxamide, reference compound]
